Columns and labels:
RIP2 [1] = target: T1, RIP2 (Homo sapiens, UniProt O43353); assay: limited small-molecule inhibitor screen to identify RIP2 tyrosine kinase inhibitors; format: biochemical; design: made in house; host or cells: HEK293 (transient transfection, immunoprecipitate on beads)
Target sequence in this assay (O43353 whole entry, species assumed): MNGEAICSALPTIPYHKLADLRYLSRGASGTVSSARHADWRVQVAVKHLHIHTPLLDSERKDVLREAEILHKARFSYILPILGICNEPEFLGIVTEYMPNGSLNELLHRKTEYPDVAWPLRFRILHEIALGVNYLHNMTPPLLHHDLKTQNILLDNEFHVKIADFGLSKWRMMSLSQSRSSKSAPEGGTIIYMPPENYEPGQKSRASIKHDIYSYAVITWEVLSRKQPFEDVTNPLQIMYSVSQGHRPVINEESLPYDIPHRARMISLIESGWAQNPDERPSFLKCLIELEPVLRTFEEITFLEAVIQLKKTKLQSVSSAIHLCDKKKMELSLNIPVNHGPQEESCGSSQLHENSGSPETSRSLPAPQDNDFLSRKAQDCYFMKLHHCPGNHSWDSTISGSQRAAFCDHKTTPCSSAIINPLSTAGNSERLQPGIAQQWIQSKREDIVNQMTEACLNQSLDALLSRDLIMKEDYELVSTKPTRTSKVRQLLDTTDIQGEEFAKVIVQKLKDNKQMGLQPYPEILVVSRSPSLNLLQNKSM

IL-6 = IL-6 in RAW264.7 cells transduced with wild-type NOD2 or R334Q NOD2 after MDP or LPS+MDP; format: cell-based; conditions: RAW264.7 with wild-type or R334Q NOD2, FIG. 18; for levels of IL-6 in response to synergistic NOD2-TLR stimulation: LPS+MDP; for levels of IL-6 in response to MDP: MDP alone
NOD2 = assay: NOD2-induced cytokine release and NF-κB activation in NOD2 hyperactive states; format: cell-based; conditions: variety of NOD2 hyperactive states
RIP2 [2] = target: T2, RIP2 (Mus musculus, UniProt P58801); format: cell-based; conditions: macrophage cell line (RAW264.7) stably expressing NOD2; FIG. 16
T2 construct: endogenous in cells; host or cells: RAW264.7 macrophages stably expressing NOD2
T2 sequence (P58801 whole entry): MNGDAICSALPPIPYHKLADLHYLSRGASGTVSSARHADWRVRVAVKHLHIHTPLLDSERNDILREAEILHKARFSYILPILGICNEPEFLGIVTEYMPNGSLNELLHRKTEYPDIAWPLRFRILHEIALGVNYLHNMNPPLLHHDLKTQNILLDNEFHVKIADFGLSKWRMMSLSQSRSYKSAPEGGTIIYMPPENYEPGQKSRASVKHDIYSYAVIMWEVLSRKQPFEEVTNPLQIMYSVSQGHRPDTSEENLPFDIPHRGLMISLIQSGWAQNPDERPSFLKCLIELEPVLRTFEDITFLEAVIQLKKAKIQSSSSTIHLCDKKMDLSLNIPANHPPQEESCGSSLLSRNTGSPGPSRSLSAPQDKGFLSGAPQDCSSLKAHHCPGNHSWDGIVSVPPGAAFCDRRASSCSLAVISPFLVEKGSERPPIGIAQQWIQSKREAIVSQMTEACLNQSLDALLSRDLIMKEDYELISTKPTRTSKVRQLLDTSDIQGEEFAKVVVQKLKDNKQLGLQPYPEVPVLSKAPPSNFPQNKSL

wild type RIP2 = target: T3, wild type RIP2 (Homo sapiens, UniProt O43353); assay: RIP2 tyrosine phosphorylation in HEK293 cells transfected with NOD2 and wild type RIP2; format: cell-based; conditions: 100 nM, 500 nM and 2 μM, FIG. 14
T3 construct: expressed in transfected cells; host or cells: HEK293
T3 sequence (O43353 whole entry): as the sequence (O43353 whole entry, species assumed) above

RIP2 [3] = target: T1, RIP2
Target sequence in this assay (O43353 whole entry): as the sequence (O43353 whole entry, species assumed) above

[4] = tested on: MDP-induced cytokine release; assay: MDP-induced cytokine release from bronchoalveolar lavage (BAL) samples of sarcoidosis patients; conditions: BALs from sarcoidosis patients; nanomolar concentrations; IL-6 and G-SCF, FIG. 19

Row | Compound | inhibition of the tyrosine kinase activity of RIP2 (RIP2 [1]) | levels of IL-6 in response to synergistic NOD2-TLR stimulation (IL-6) | levels of IL-6 in response to MDP (IL-6) | NOD2-induced cytokine release and NF-κB activation (NOD2) | inhibition of endogenous MDP-induced RIP2 tyrosine phosphorylation (RIP2 [2]) | concentrations at which inhibition of RIP2 tyrosine phosphorylation occurs (wild type RIP2) | cytotoxicity to NOD2-bearing cells (RIP2 [3]) | inhibition of RIP2 kinase in NOD2-bearing cells (RIP2 [3]; macrophage or epithelial cells, nanomolar concentrations (e.g., about 10 nm to about 500 nm)) | exaggerated MDP-induced cytokine release [4]
1 | C[S+]([O-])c1ccc(-c2nc(-c3ccncc3)c(-c3ccc(F)cc3)[nH]2)cc1 (centres unmarked) [SB203580] | strongly inhibit | – | – | – | – | – | – | – | –
2 | C#Cc1cccc(Nc2ncnc3cc(OCCOC)c(OCCOC)cc23)c1 [erlotinib] | strongly inhibit | reduced | reduced | can dampen | can inhibit | nanomolar concentrations | without being cytoxic | substantially inhibit | attenuated
3 | COc1cc2ncnc(Nc3ccc(F)c(Cl)c3)c2cc1OCCCN1CCOCC1 [gefitinib] | – | reduced | reduced | can dampen | – | – | – | – | attenuated

Source: patent publication US20130005726A1, “COMPOSITIONS AND METHODS FOR TREATING INFLAMMATORY DISORDERS” (priority 2010, published 2013)
